Values quoted from earlier work in article PMC8176454, “Synthesis and Assessment of Novel Probes for Imaging Tau Pathology in Transgenic Mouse and Rat Models” (ACS Chemical Neuroscience, 2021).

System: tau aggregates in P301S tau and GSK3-β X P301L tau (biGT) mice
Parameters: method as in PMID 26912432
Conditions: cited from earlier work

CNc1ccc(-c2ccc3cc(OCC(O)C[18F])ccc3n2)cc1 (stereo not shown) [[^18F]THK5117]
Binding to tau aggregates in two transgenic mouse models: bound to tau aggregates
